Drawing on a melting point compilation (Tetko et al.), this text covers melting point for 111 molecules.

SMILES strings stand for the structures.

A word on the melting point: it is the temperature, or range, at which the solid turns liquid. For `Clc1ccc(Br)nc1`, the melting point was in the range of 65 to 69 °C. Take `c1ccc2c(c1)OCCOCCNCCOCCO2`: the melting point lay in the range of 147 to 149 °C.

In turn, `CCCCCCCCc1ccc(NC(=O)c2ccc(CC)cc2)cc1` displayed a melting point of 109 °C. As for `CCCCC(CC)CCl` (stereo unspecified), the figure is -70 °C; as for `C=CSC=C`, 20 °C; as for `Cc1ccc(-c2snc(Cl)c2C#N)cc1`, 82 to 83 °C.

The molecule `FC(F)=C(Cl)C(F)(F)F` yielded a melting point of -130 °C.

Turning to `CCOC(=O)c1c(N=C=S)sc2c1CCCC2`, the melting point lay within 45 to 46 °C.

The molecule `CC(C)(C)c1ncc(C(=O)Nc2cccc(Br)c2)nc1Cl` showed a melting point of 105 °C.

`CCCCCCCC(=O)CCCCCCC` had a melting point of 43 °C. The value for `N#CCc1csc2ccccc12` was 64 °C; that for `O=C1CC2CCC1C2` (stereo unspecified) was 95 °C; that for `CCOC(=O)c1cc(C)n(Cc2ccccc2)n1` was 37 °C.

On to `CC(C)(C)OC(=O)N[C@@H](C=O)Cc1ccccc1`, for which the melting point lay in the range of 85 to 89 °C. The value for `COc1cc2ccc(=O)oc2cc1OC` was 146 °C.

Regarding `FC(F)(F)c1ccc(=S)[nH]c1`, the melting point lay in the range of 159 to 160 °C.

In turn, `O=C(c1ccccc1)c1ccc(N2CCOCC2)cc1` registered a melting point of 142 to 145 °C. The molecule `Nc1c(C=O)cc(C=O)c2nc(-c3ccccc3)c(-c3ccccc3)nc12` yielded a melting point of 289 °C. As for `Cc1c(Cl)ccc(O)c1Cl`, the figure is 58 °C; as for `NS(=O)(=O)c1ccc(CCCCCO)cc1`, 86 °C. As for `O=C(Cl)c1cccc2ccccc12`, the figure is 26 °C; as for `CCCCCCCCCCCC#N`, 4 °C. As for `CC(=O)NCO`, the figure is 55 to 56 °C; as for `Cc1ccc(S(=O)(=O)OCC(C)OS(=O)(=O)c2ccc(C)cc2)cc1` (stereo unspecified), 68 to 70 °C; as for `C[C@]12CCC(=O)C=C1C(=O)C[C@@H]1[C@@H]2CC[C@@]2(C)[C@H]1CCC21OCCO1`, 162 °C. Turning to `CC(=O)OC1CC2C3CCC(C(C)CCCC(C)C)C3(C)CCC2C2(C)CCC(=O)CC12O` (stereo unspecified), the melting point was found to be 161 °C. As for `COC(=O)c1ccccc1-n1c(=S)[nH]c2ccccc2c1=O`, the figure is 255 to 257 °C; as for `CC(C)C(=O)C(C)C`, -69 °C.

`O=C(CCl)c1cc(Br)c(Cl)s1`: the melting point fell in the range of 77 to 78 °C. As for `O=C(O)c1cc(=O)cc(C(=O)O)o1`, the figure is 262 °C; as for `Cc1ccc(C(=O)C(=O)c2ccc(Cl)cc2)cc1`, 123 to 124 °C; as for `NCCc1c[nH]c2ccc(O)cc12`, 168 °C.

On to `Fc1ccc(Br)nc1`, for which the melting point was 28.5 °C. The value for `COc1cccc2c1C(=O)c1c(O)c3c(c(O)c1C2=O)CC(O)(C(=O)CO)CC3OC1CC(N)C(O)C(C)O1` (stereo unspecified) was 345 °C; that for `Cn1nc2ccccc2c1C=O` was 75 to 77 °C. The value for `CN(CC(=O)O)CC(=O)O` was 218 to 221 °C; that for `c1ccc(-c2c[nH]cn2)cc1` was 144 °C; that for `O=C(Cl)C(Cl)(c1ccccc1)c1ccccc1` was 47 to 52 °C. Molecule `CN(C)CCOCCN(C)C` yielded a melting point of -80 °C. The value for `COc1ccc([N+](=O)[O-])cc1Cl` was 94 to 96 °C. For `O=[N+]([O-])c1cccc2ncccc12`, the melting point stood at 74 °C. As for `O=C(O)c1[nH]c2ccccc2c1Br`, the figure is 185 to 188 °C; as for `CC1CCC(C(C)C)C(OC(=O)C(=O)C=Cc2ccccc2)C1` (stereo unspecified), 45.5 °C; as for `Clc1ccc(-c2cc(Cl)c(Cl)c(Cl)c2Cl)cc1`, 98 °C.

As for `CCCCCCCCC(C)CC` (stereo unspecified), the melting point is -58 °C.

`OCC(F)(F)C(F)(F)C(F)(F)C(F)(F)C(F)(F)C(F)(F)C(F)(F)C(F)(F)C(F)(F)F` registered a melting point of 87 to 91 °C. Turning to `C=CC(=O)OC1CC2CCC1(C)C2(C)C` (stereo unspecified), the melting point amounted to 97 °C.

Molecule `Nc1cc[nH]n1` registered a melting point of 37 °C. In the case of `CN(C)c1cccc2c(S(=O)(=O)NC3CC(C)(C)N(O)C3(C)C)cccc12` (stereo unspecified), the melting point fell in the range of 157 to 161 °C. As for `CC12CCC3C(CCC4=CC(=O)C=CC43C)C1CCC(=O)O2` (stereo unspecified), the figure is 218 °C. The value for `COc1ccc(C(=O)N=C=S)cc1` was 23 to 25 °C; that for `CC(=O)NC(=Cc1ccccc1)C(=O)O` was 192 °C; that for `CCC(CO)NC(=O)C1C=C2c3cccc4[nH]cc(c34)CC2N(C)C1` (stereo unspecified) was 172 °C. `O=C(O)C[C@H](NC(=O)OCC1c2ccccc2-c2ccccc21)c1cccc([N+](=O)[O-])c1` registered a melting point of 140 °C. The value for `CC(=O)c1c2ccccc2cc2ccccc12` was 74 °C; that for `COc1cc(C[N+](=O)[O-])ccc1OCc1ccccc1` was 153 °C; that for `CCOO` was -100 °C. As for `O=C(O)c1cc(Cl)ccc1Br`, the figure is 154 °C; as for `O=C1CCc2cc(OCCCCc3nnnn3C3CCCCC3)ccc2N1`, 160 °C; as for `COc1cccc(C)c1[N+](=O)[O-]`, 50 °C. Molecule `CCc1cnc(C2=NC(C)(C(C)C)C(=O)N2)c(C(=O)O)c1` (stereo unspecified) showed a melting point of 171 °C.

For `Oc1cccnc1I`, the melting point came out at 193 °C. On to `OC[C@H]1O[C@H](CO)[C@@H](O)[C@@H]1O`, for which the melting point is 100 to 103 °C. Take `N#Cc1ccc(F)c(C(F)(F)F)c1`: the melting point was found to be 68 °C. The value for `CC(C)(C)n1nc(-c2ccc(Cl)cc2)c(C#N)c1N` was 154 to 155 °C; that for `CC(=O)/C=C/c1oc2ccc(Cl)cc2c1-c1ccc(C)o1` was 118 to 119 °C. The value for `COc1ccc(C(N)C(N)c2ccc(OC)cc2)cc1` (stereo unspecified) was 148 to 152 °C; that for `O=Nc1c(-c2cccs2)nc2ncccn12` was 239 °C; that for `CC1=C2C3OC(=O)C(C)C3C(O)CC2(C)C=CC1=O` (stereo unspecified) was 203 °C.

The molecule `O=C(O)c1cccc(-c2ccncc2)c1` gave a melting point of 268 °C. The value for `COc1cc(N=C=S)c(C(c2ccc(C)o2)c2ccc(C)o2)cc1OC` was 91 °C; that for `CCCCCCCCCCC(=O)CCCCC` was 37 °C.

Take `Oc1nccc(C(F)(F)F)n1`: the melting point was in the range of 217 to 218 °C. As for `Cn1ccc(-c2cccc(C(=O)O)c2)n1`, the figure is 167 to 169 °C; as for `COc1ccc(Nc2cccc(C(F)(F)F)c2)cc1`, 58 °C; as for `OC1NN(c2ccccc2)C(O)C1=Cc1ccc2c(c1)OCO2` (stereo unspecified), 290 °C. As for `CCN(CC)C(=S)SC(=S)N(CC)CC`, the figure is 31 °C; as for `N#CC(C(=O)OCc1ccccc1)c1cc(C(F)(F)F)ccc1[N+](=O)[O-]` (stereo unspecified), 71 °C; as for `O=C1Nc2c(Cl)cccc2C1=O`, 190 °C. The value for `CC(=O)c1ccc(OCc2ccc(F)cc2)c([N+](=O)[O-])c1` was 105 to 107 °C. As to `O=C(OCC(=O)N1CCCCCC1)c1ccccc1`, the melting point came to 108 °C. The value for `O=[N+]([O-])c1ccc(OS(=O)(=O)C(F)(F)F)cc1` was 52 °C; that for `O=C(O)C=CC(=O)Nc1ccc(Cl)cc1Cl` was 178 °C.

Turning to `O=C(O)C1=Cc2cc(Cl)ccc2OC1`, the melting point turned out to be 245 °C. The value for `Cc1ccc(C(Br)C(=O)c2ccc(Cl)cc2)cc1` (stereo unspecified) was 76 to 78 °C; that for `c1ccc(Sc2ccccc2)cc1` was -40 °C; that for `O=C(CCl)Nc1ccc([N+](=O)[O-])cc1` was 185 to 186 °C.

For `BrC1CCC(Br)C(Br)CCC(Br)C(Br)CCC1Br` (stereo unspecified), the melting point lay in the range of 173 to 177 °C. As to `COc1ccc(Cc2c(N)nn3c(C)cc(C)nc23)cc1`, the melting point is 159 to 160 °C. As for `CC(=O)C=C(C)N1CCCC1`, the figure is 114 to 116 °C; as for `COC(=O)c1cc(O)cc(Br)c1`, 133 °C. The value for `COc1ccccc1C1(C)CCc2oc3ccc(Br)cc3c2-c2oc(C)cc21` (stereo unspecified) was 209 °C. The value for `O=C(Nc1ccc([N+](=O)[O-])cc1)c1ccccc1` was 198 °C; that for `CCOc1ccc(CCO)cc1` was 42 °C; that for `c1ccc(C2=NOC(c3ccccc3)C2)cc1` (stereo unspecified) was 75 °C. Consider `O=[N+]([O-])c1ccc(Cl)c(C(F)(F)F)c1`, for which the melting point is 22 °C. `COc1ccc2c(c1)CCC(=Cc1ccccc1)C2=O` showed a melting point of 75 to 75.5 °C. As for `COc1ccc2c(CCN)c[nH]c2c1`, the figure is 143 to 146 °C; as for `CCCCCCCCSC(=O)Oc1cc(Cl)nnc1-c1ccccc1`, 27 °C. Take `c1ccc(C2=C(c3ccccc3)NC(c3ccncc3)N2)cc1`: the melting point was 255 to 265 °C. The value for `CCc1ccc(C(c2ccc(CC)o2)c2cc3c(cc2[N+](=O)[O-])OCCO3)o1` was 86 °C. As for `CC(C)OC(C)(C)C`, the figure is -88 °C. As to `Cc1cc(N)c2ncccc2c1`, the melting point is 73 °C. The value for `CC(=O)Nc1ccccc1C=Cc1cc(C=Cc2ccccc2NC(C)=O)c([N+](=O)[O-])cc1[N+](=O)[O-]` was 270 °C; that for `CC1=NN(CN2CCCCC2)C(=O)/C1=N\Nc1ccc(Cl)cc1Cl` was 122 to 124 °C; that for `Cc1ccc(C#N)cc1Br` was 41 °C. `O=[N+]([O-])c1ccccc1S(=O)(=O)Cl`: the melting point is 67 °C. As for `N#Cc1cccc(I)c1`, the figure is 40 °C; as for `O=S(c1ccc(Cl)cc1)c1ccc(Cl)cc1`, 140 to 145 °C. The value for `Oc1ccc(O)c2c1C1CCC2C1` was 172 to 178 °C; that for `COc1ccc(C)cc1N` was 53 °C.
